For four compounds, IC50 results are on record in paper PMC4309955 (Scientific Reports, 2015).

In test [1] the target is T1, human AT1R (angiotensin II type 1 receptor) (Homo sapiens, UniProt P30556).
T1 sequence (P30556 1-359): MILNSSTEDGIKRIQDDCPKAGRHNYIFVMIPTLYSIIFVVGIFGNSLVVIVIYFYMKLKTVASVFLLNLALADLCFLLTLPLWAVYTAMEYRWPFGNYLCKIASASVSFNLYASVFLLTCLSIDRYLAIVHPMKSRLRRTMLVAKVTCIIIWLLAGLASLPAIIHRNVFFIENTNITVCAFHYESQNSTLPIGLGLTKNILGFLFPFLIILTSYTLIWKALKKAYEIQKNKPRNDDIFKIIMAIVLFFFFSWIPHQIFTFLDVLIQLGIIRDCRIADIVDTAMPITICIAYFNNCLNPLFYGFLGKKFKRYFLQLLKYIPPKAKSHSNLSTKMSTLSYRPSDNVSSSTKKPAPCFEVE
Description: inhibition of AngII-induced beta-arrestin activation, cell impedance. It counts as cell-based.

For test [2], the target named is T1, human AT1R (angiotensin II type 1 receptor). Briefly: inhibition of AngII-induced G protein activation, cell impedance. It is filed as cell-based.

The structures appear in SMILES notation.

Consider `CCOc1nc2cccc(C(=O)O)c2n1Cc1ccc(-c2ccccc2-c2noc(=O)[nH]2)cc1` [Azilsartan], for which the concentration for half-maximal inhibition (IC50) in test [1] and in test [2] was 1.6 nM throughout.
In the case of `CCOc1nc2cccc(C(=O)O)c2n1Cc1ccc(-c2ccccc2-c2nnn[nH]2)cc1` [Candesartan], the IC50 (commonly the concentration at which inhibition is half-maximal) in test [1] stood at 0.7 nM; in test [2] it was 2 nM.
In the same order, the values of `CCCCc1ncc(/C=C(\Cc2cccs2)C(=O)O)n1Cc1ccc(C(=O)O)cc1` [Eprosartan] are 7.5 nM and 4.7 nM.
As for `CCCc1nc(C(C)(C)O)c(C(=O)O)n1Cc1ccc(-c2ccccc2-c2nnn[nH]2)cc1` [Olmesartan], the IC50 in test [1] came to 20.4 nM; in test [2], 14.5 nM.
